Where a name gives a salt, the structure may show the parent alone. Read-outs that look alike come from different tables or passages of the source.
Tests used:
Format in all cases: cell-based, Mycobacterium tuberculosis
[1] = tested on: 33 isolates of M. tuberculosis; conditions: for need for drug pre-treatment prior to phage incubation: Tb inoculum and phage added simultaneously, significant ΔCt in 24 hour
[2] = tested on: M. tuberculosis in smear positive sputum sediments; conditions: total 22 sediments
M. tuberculosis isolates [3] = tested on: M. tuberculosis isolates
M. tuberculosis isolates [4] = tested on: M. tuberculosis isolates; remark: listed apart in the source
[5] = tested on: M. tuberculosis H37Rv (ATCC 27294); test: D29 phage-qPCR assay development on H37Rv; conditions: for duration of drug treatment at which qPCR Ct became clearly disparate from control: drug treatment followed by 24 h phage incubation, FIG. 1D
[6] = strains confirmed as drug susceptible by agar proportion

Compound | Culture R (n samples) ([2]; sediment phage assay result R) | Culture S (n samples) ([2]; sediment phage assay result R) | Culture R (n samples) ([2]; sediment phage assay result S) | Culture S (n samples) ([2]; sediment phage assay result S) | Agar proportion R (n isolates) (M. tuberculosis isolates [4]; phage assay result R) | Agar proportion S (n isolates) (M. tuberculosis isolates [4]; phage assay result R) | Agar proportion R (n isolates) (M. tuberculosis isolates [4]; phage assay result S) | Agar proportion S (n isolates) (M. tuberculosis isolates [4]; phage assay result S) | need for drug pre-treatment prior to phage incubation [1] | further results
CCc1cc(C(N)=S)ccn1 [Ethionamide, ethionamide] | – | – | – | – | – | – | – | – | – | duration of drug treatment of Tb prior to 24 hours of phage incubation yielding optimal ΔCt [1]: 48 h
CO[C@H]1/C=C/O[C@@]2(C)Oc3c(C)c(O)c4c(O)c(c(/C=N/N5CCN(C)CC5)c(O)c4c3C2=O)NC(=O)/C(C)=C\C=C\[C@H](C)[C@H](O)[C@@H](C)[C@@H](O)[C@@H](C)[C@H](OC(C)=O)[C@@H]1C [Rifampin, rifampin] | 1 | 0 | 0 | 21 | 5 | 2 | 5 | 142 | – | Agar proportion susceptible (n isolates) (M. tuberculosis isolates [3]; listed as RIF): 11; D29 phage assay susceptible (n isolates) ([1]; listed as RIF): 11; number of phage / real-time PCR Ct value after drug pre-treatment [5]: the number of phage did not increase/Ct value did not decrease; ΔCtRIF (Ct control−Ct drug) [5]: −12; ΔCt ([5]; H37Rv pre-treated with drug for 72 hours, FIG. 1B): approximately −5; duration of drug treatment at which qPCR Ct became clearly disparate from control ([5]; H37Rv): 24 h
capreomycin sulfate | – | – | – | – | – | – | – | – | no pre-treatment was required | Agar proportion susceptible (n isolates) (M. tuberculosis isolates [3]; listed as CAP): 31; D29 phage assay susceptible (n isolates) ([1]; listed as CAP): 30
[H]/N=C(/N)N[C@H]1[C@H](O)[C@@H](O)[C@H](O[C@@H]2O[C@@H](C)[C@](O)(C=O)[C@H]2O[C@@H]2O[C@@H](CO)[C@H](O)[C@@H](O)[C@@H]2NC)[C@@H](N/C(N)=N\[H])[C@@H]1O [Streptomycin, streptomycin sulfate] | 1 | 0 | 1 | 20 | 16 | 0 | 3 | 135 | no pre-treatment was required | –
NCC[C@H](O)C(=O)N[C@@H]1C[C@H](N)[C@@H](O[C@H]2O[C@H](CN)[C@@H](O)[C@H](O)[C@H]2O)[C@H](O)[C@H]1O[C@H]1O[C@H](CO)[C@@H](O)[C@H](N)[C@H]1O [Amikacin, amikacin] | – | – | – | – | – | – | – | – | no pre-treatment was required | Agar proportion susceptible (n isolates) (M. tuberculosis isolates [3]; listed as AMK): 31; D29 phage assay susceptible (n isolates) ([1]; listed as AMK): 31
Nc1ccc(C(=O)O)c(O)c1 [para-aminosalicylic acid] | – | – | – | – | – | – | – | – | – | duration of drug treatment of Tb prior to 24 hours of phage incubation yielding optimal ΔCt [1, 6]: 48 h
NNC(=O)c1ccncc1 [Isoniazid, isoniazid] | 1 | 3 | 0 | 18 | 22 | 9 | 5 | 118 | – | number of phage / real-time PCR Ct value after drug pre-treatment [5]: the number of phage did not increase/Ct value did not decrease; need for drug pre-treatment prior to phage incubation ([5]; H37Rv, FIG. 1E, 48 h superior to 24 h, 6 h and 3 h): pre-treatment was required; duration of drug treatment at which qPCR Ct became clearly disparate from control ([5]; H37Rv): 48 h
CC[C@@H](CO)NCCN[C@@H](CC)CO [Ethambutol, ethambutol hydrochloride] | 0 | 0 | 0 | 22 | 0 | 1 | 8 | 145 | – | Agar proportion susceptible (n isolates) (M. tuberculosis isolates [3]; listed as EMB, hydrochloride): 12; D29 phage assay susceptible (n isolates) ([1]; listed as EMB, hydrochloride): 12; duration of drug treatment of Tb prior to 24 hours of phage incubation yielding optimal ΔCt [1, 6]: 48 h
CC(=O)NC[C@H]1CN(c2ccc(N3CCOCC3)c(F)c2)C(=O)O1 [Linezolid, linezolid] | – | – | – | – | – | – | – | – | no pre-treatment was required | –
N[C@@H]1CON=C1O [Cycloserine, D-cycloserine] | – | – | – | – | – | – | – | – | no pre-treatment was required | –
